Assays:
[1] = test system: differentiated HBE cultures; test: ASL volume by refracted light microscopy of the meniscus, bumetanide treatment; assay type: cell-based, human; conditions: 100 μM bumetanide for three days prior to measurement; mean ±SEM; control filters 10.6±1.0 μL; p<0.001
Experimental: (§1) HBE cells were cultured from excess pathological tissue following lung transplantation and organ donation under protocols approved by the Universities of Pittsburgh and North Carolina Investigational Review Boards. Cells were studied following 3-6 weeks of culture and considered differentiated when a mucociliary phenotype was apparent on phase contrast microscopy. HBE cultures grown in a twenty four well plate on 0.33 cm^2 filter inserts (See, e.g., FIG. 1B) were visualized with a standard cell culture microscope (Olympus CK40) with a 5× plain light objective (Zeiss) and imaged using a Scion CFW 1610M camera with μManager (30). […] In order to standardize the quantification of the meniscus image, a custom script using the open-source ImageJ software was developed. […] The length of the meniscus can be determined as the length from where the grey value is greater than min to the end of the array and the area under the curve (AUC) is measured using the numerically integrated rectangular rule. […] Therefore, the correlation between the derived parameters of the intensity profile and the ASL volume were determined, rather than mathematically calculating the volume based on the AUC of the intensity profile. […] Thus, the ASL volume can be measured from the image of the meniscus by integrating the […] value with the experimentally derived calibration curve shown in FIG. 4B. […]

[2] = test system: differentiated CF HBE cells; test: ASL volume by refracted light microscopy after apical fluid bolus, isotonic versus hypertonic; assay type: cell-based, human; conditions: 5 μL PBS with 300 mM mannitol applied apically; ASL volume measured at 0, 4, 8, 24, 48 and 72 hours; FIG. 7
Experimental: as §1

Compound | ASL volume [1] | ASL volume expansion compared to isotonic fluid [2]
CCCCNc1cc(C(=O)O)cc(S(N)(=O)=O)c1Oc1ccccc1 [bumetanide] | 1.1 ± 0.1 µL | –
OC[C@@H](O)[C@@H](O)[C@H](O)[C@H](O)CO [mannitol] | – | more pronounced and prolonged ASL volume expansion

From patent US9784725B2, “Light refraction imaging to measure liquid volume” (University of Pittsburgh—Of the Commonwealth System of …, priority 2016, dated 2017)
